Experiments:
[1] = target: T1, combination of ASIC1 and ASIC2 (Homo sapiens, UniProt P78348+Q16515); assay: Acid-activated currents in voltage-clamped Xenopus oocytes expressing ASIC1 and ASIC2; format: cell-based; conditions: 400 μM amiloride; pHo 4.0; −60 mV
T1 construct: expressed in transfected cells; host or cells: Xenopus oocytes (cRNA injection)
Excerpt: (§1) FIGS. 8A-C show acid-activated ASIC currents in Xenopus oocytes. ASIC 2 (FIG. 8A), ASIC1 (FIG. 8B) and the combination of ASIC2 and ASIC1 (FIG. 8C) were examined. […] Each oocyte served as its own control.
(§2) Membrane potential was held at −60 mV, and the pHo was step decreased to 4.0 for 10 s, and then returned to 7.4 for 30 s before repeating the sequence.
(§3) Xenopus oocytes were used to express ASIC1 and ASIC2 mRNA individually and in combination. Oocyte preparation, cRNA injection, and two-electrode voltage clamp recordings were performed as described (33,67-69).
as §2

[2] = test system: inward currents in D54-MG glioma cells; assay: Whole-cell patch clamp, D54-MG glioma cells; format: cell-based, human; conditions: 100 μM amiloride
Protocol: FIGS. 7A-7C show representative whole-cell patch clamp recordings.
The amiloride-sensitive inward Na^+ currents are measured regardless of whether ASIC2 is absent or present (FIGS. 7A-D). Whole-cell patch clamp recordings were obtained from U87-MG, SK-MG, and D54-MG glioma cells in the basal state. […] This inhibition of the inward current occurred regardless of the absence or presence of ASIC2 mRNA (FIG. 7D) (as detected by RT-PCR as described above).

ASIC1 [3] = target: T2, ASIC1 (Homo sapiens, UniProt P78348); assay: Wild-type ASIC1 in planar lipid bilayers, single channel recording; format: biochemical; conditions: amiloride; bilayers
T2 sequence (P78348 1-528): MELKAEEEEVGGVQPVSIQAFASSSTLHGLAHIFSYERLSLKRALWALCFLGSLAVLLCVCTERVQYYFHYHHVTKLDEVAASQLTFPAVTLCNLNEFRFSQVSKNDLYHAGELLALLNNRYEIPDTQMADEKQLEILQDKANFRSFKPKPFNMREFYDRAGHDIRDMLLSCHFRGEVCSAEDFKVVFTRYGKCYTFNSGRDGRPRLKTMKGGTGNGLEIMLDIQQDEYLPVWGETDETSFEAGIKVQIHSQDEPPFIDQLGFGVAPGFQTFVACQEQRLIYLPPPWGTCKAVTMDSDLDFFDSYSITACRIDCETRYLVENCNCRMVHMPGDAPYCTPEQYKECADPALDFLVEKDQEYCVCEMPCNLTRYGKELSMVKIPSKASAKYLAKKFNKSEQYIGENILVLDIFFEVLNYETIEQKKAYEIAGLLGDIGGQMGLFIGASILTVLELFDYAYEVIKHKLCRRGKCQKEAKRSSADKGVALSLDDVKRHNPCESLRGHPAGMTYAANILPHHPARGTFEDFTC
Protocol: An expanded time scale is shown below each trace.
Wild-type ASIC1 incorporated into planar lipid bilayers at neutral pH or at acidic extracellular pH was also examined.
as §2
Control single channel were record for ASIC1 containing channels in bilayers bathed with symmetrical 100 mM NaCl, 10 mM MOPS, pH 6.2. Holding potential was +100 mV referred to the virtually grounded trans chamber. For illustration purposes, data shown were digitally filtered at 100 Hz using pCLAMP software (Axon Instruments) subsequent to acquisition of the analog signal filtered at 300 Hz with an 8-pole Bessel filter before acquisition at 1 ms per point. An expanded time scale is shown below each trace (FIG. 21).
Representative dwell-time histograms were constructed following the events analyses performed using pCLAMP software (Axon Instruments) on single channel recordings of 10 min in duration filtered at 300 Hz with an 8-pole Bessel filter before acquisition at 1 ms per point using pCLAMP software and hardware. The event detection thresholds were 50% in amplitude of transition between closed and open states, and 3 ms in duration. Closed and open time constants shown were determined by fitting the closed and open time histograms to the probability density function (Sigworth and Sine, 1987), and using the Simplex least square routine of pSTAT. Number of bins per decade in all histograms was 16.

Na^+/H^+ exchange = conditions: glial / glioma cells; references 72, 73; cited from earlier work
ASIC1 [4] = target: T2, ASIC1; assay: Acid-activated currents in voltage-clamped Xenopus oocytes expressing ASIC1; format: cell-based; conditions: 400 μM amiloride; pHo 4.0; −60 mV
Excerpt: as §1, §2, §3, §2

primary human astrocytes = assay: Transwell Migration Assay, primary human astrocytes; format: cell-based
Protocol: (§4) Approximately 10,000 cells were added to the upper side of a filter insert perforated with 5-8 μm holes, and induced to migrate through these pores toward the extracellular matrix protein vitronectin (coated on the underside of the filter). PcTX1 or control scrambled PcTX1 peptide was added to each compartment at the same time as the cells. BSA-coated filter inserts were used as negative controls. After 3 h, cells were fixed with 4% paraformaldehyde, and subsequently stained with crystal violet. Cells were counted on an inverted microscope, averaging five fields per Transwell chamber. Four-to-ten chambers were used under each condition.

primary GBM cultures = assay: Transwell Migration Assay, primary GBM cultures; format: cell-based, human; conditions: 3 h, vitronectin
Protocol: as §4

U87-MG cells [5] = assay: Regulatory volume increase after osmotic shrinkage, Coulter counter; format: cell-based, human; conditions: 80 nM PcTX1; 450 mOsM/kg
Protocol: U87-MG cells were mechanically dispersed, washed, and resuspended in PBS. At t=2-3 min, the osmolality of the bathing medium was increased to 450 mOsM/kg by the addition of NaCl from a 3M stock solution.

U87-MG cells [6] = assay: Cell growth in culture; format: cell-based, human; conditions: 80 nM PcTX1
D54-MG glioma cells = assay: Transwell Migration Assay, D54-MG cells; format: cell-based, human; conditions: 3 h, vitronectin
Protocol: 5-8 μm polycarbonate Transwell filters were coated on the lower surface with or vitronectin ([…] in PBS). […] of D54MG cells (400,000 cells/ml were added to the upper chamber), in the presence or absence of benzamil, and migration was allowed to proceed for 3 hours. Migration was determined according to standard procedures (120). N-amidino-3,5-diamino-pyrazinecarboxamide was used as a control.
To begin to investigate the role of the inward Na^+ conductance in the invasive behavior of tumor cells, a Transwell Migration Assay was used to assess cell chemotaxis and invasiveness (FIG. 17). D54-MG cells were plated on the upper side of a filter insert perforated with 5-8 μm holes, and induced to migrate through these pores toward the extracellular matrix protein vitronectin (coated on the underside of the filter). Benzamil, at 10, 20, 50, or 100 μM, was added to both chambers at time 0. After a 3 h migration time, cells were fixed, stained with crystal violet, and counted. BSA-coated filter inserts were used as negative controls. […]
Approximately 10,000 cells were added to the upper side of a filter insert perforated with 5-8 μm holes, and induced to migrate through these pores toward the extracellular matrix protein vitronectin (coated on the underside of the filter). […] Cells were counted on an inverted microscope, averaging five fields per Transwell chamber. […]

T1 sequence (Q16515 whole entry, one chain of several): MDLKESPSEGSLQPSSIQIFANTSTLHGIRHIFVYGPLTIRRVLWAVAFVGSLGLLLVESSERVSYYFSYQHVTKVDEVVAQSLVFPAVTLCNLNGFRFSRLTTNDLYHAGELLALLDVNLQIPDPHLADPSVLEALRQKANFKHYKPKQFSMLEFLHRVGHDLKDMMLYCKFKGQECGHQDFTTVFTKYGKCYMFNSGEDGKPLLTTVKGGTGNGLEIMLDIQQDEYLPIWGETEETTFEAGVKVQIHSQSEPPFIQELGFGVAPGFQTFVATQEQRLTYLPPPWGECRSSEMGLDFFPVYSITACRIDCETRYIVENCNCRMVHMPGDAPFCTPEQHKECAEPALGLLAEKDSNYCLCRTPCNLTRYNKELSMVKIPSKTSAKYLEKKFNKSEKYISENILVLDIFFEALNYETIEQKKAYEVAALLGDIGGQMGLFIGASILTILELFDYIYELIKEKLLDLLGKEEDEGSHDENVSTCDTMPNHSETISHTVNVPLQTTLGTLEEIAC

Row | Compound | inhibition of acid-activated currents [1] | inhibition of inward currents [2] | kind of channel block (ASIC1 [3]) | inhibition of Na^+/H^+ exchange (Na^+/H^+ exchange) | inhibition of acid-activated currents (ASIC1 [4]) | effect on Transwell migration (primary human astrocytes) | diminished ability to migrate through the filter (primary GBM cultures) | volume recovery after shrinkage (U87-MG cells [5]) | growth of cells in culture (U87-MG cells [6]) | diminished ability to migrate through the filter (D54-MG glioma cells)
1 | N=C(N)NC(=O)c1nc(Cl)c(N)nc1N [amiloride] | inhibited | inhibited | flickery-block | can inhibit | inhibited |  |  |  |  | 
2 | Psalmotoxin 1 [PcTX1] |  |  |  |  |  | no effect | > 90% | effectively prevented | significantly inhibited | > 90%
